Test results: ChEMBL document CHEMBL1201862, “PubChem BioAssay data set” (2004)
Activity calls are given as the source filed them.

Legend:
[1] = molecular target: Fructose-bisphosphate aldolase (Mycobacterium tuberculosis, UniProt P9WQA3); test: Fluorescence-based biochemical high throughput dose response assay for inhibitors of the fructose-bisphosphate aldolase (FBA) of M. tuberculosis.; type: functional
[2] = molecular target: Arf-GAP with SH3 domain, ANK repeat and PH domain-containing protein 1 (Homo sapiens, UniProt Q9ULH1); type: functional;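 further: biochemical fluorescence polarization dose–response screen measuring inhibition of ASAP1; ASAP1 GAP domain stimulating GTP hydrolysis by truncated human ARF1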
Arf-GAP with SH3 domain, ANK repeat and PH domain-containing protein 1, sequence (Q9ULH1 whole entry, the tested form may be a part): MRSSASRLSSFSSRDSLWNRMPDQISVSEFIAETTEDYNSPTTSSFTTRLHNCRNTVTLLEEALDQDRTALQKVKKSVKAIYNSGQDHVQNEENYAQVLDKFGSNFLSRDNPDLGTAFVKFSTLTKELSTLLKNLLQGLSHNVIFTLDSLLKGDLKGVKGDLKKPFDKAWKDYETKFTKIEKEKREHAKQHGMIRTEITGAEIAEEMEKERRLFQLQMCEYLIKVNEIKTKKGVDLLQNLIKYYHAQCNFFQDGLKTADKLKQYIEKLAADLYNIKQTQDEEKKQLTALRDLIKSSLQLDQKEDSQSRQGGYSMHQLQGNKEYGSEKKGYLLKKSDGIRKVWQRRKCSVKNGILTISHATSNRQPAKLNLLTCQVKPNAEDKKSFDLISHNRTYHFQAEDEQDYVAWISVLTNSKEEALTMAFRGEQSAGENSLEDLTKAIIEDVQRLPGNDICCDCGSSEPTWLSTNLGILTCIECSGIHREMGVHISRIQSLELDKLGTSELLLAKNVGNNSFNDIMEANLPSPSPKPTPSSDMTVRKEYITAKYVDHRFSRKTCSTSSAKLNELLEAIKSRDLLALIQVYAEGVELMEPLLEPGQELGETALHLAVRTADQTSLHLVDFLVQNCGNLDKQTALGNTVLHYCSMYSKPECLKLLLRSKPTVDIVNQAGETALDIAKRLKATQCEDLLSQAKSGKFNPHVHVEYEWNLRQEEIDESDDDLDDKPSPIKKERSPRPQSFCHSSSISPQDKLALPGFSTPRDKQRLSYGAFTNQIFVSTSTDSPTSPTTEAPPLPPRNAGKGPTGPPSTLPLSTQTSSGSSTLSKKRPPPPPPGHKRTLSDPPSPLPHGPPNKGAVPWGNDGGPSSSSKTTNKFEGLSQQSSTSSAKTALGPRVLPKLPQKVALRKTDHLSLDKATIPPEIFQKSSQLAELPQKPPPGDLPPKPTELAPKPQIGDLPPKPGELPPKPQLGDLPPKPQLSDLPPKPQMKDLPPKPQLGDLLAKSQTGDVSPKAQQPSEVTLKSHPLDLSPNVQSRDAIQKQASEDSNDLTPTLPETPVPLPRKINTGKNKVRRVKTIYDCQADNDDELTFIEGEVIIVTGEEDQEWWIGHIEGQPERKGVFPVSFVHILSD

[3] = molecular target: ADP-ribosylation factor GTPase-activating protein 1 (Rattus norvegicus, UniProt Q62848); test: Fluorescence polarization-based biochemical high throughput dose response screening assay to identify inhibitors of ADP-ribosylation factor GTPase activating protein 1 (ARFGAP1).; type: functional
ADP-ribosylation factor GTPase-activating protein 1, sequence (Q62848 whole entry): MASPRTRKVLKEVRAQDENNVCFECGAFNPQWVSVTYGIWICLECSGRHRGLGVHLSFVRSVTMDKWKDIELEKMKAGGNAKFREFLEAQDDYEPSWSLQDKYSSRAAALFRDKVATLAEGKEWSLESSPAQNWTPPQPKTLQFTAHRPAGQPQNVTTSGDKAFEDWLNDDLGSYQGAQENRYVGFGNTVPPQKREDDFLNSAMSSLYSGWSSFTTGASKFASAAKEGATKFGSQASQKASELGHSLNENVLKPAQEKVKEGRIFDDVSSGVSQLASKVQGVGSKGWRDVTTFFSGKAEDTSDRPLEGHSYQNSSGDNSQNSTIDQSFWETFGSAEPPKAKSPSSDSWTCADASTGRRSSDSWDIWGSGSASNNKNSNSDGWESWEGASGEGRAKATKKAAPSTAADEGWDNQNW

[4] = molecular target: DNA repair protein RAD52 homolog (Homo sapiens, UniProt P43351); type: functional, biochemical
DNA repair protein RAD52 homolog, sequence (P43351 whole entry): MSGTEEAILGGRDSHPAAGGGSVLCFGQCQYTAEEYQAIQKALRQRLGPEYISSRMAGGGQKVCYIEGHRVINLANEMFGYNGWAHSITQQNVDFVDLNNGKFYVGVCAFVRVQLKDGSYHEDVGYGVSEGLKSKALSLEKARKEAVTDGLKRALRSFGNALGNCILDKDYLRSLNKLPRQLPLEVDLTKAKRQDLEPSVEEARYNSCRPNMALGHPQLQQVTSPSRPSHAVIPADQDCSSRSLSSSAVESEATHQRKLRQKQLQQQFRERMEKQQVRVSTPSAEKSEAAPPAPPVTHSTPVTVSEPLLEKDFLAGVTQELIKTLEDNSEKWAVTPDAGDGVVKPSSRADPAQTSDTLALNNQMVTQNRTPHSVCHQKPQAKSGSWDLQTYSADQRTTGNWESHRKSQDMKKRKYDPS

[5] = NIH3T3 cell viability loss – ATP luminescence, mouse fibroblasts, counter-screen, dose response (AID 2010); type: functional, cell-based;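 further: cells exposed to compound for about 90 hours before reading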
[6] = molecular target: T1, DNA repair and recombination protein RAD54-like (Homo sapiens, UniProt Q92698); test: RAD54 Holliday junction migration blockers – biochemical, fluorescence, cherry-picked samples, dose series, confirmation (AID 651657); type: functional
T1 sequence (Q92698 whole entry): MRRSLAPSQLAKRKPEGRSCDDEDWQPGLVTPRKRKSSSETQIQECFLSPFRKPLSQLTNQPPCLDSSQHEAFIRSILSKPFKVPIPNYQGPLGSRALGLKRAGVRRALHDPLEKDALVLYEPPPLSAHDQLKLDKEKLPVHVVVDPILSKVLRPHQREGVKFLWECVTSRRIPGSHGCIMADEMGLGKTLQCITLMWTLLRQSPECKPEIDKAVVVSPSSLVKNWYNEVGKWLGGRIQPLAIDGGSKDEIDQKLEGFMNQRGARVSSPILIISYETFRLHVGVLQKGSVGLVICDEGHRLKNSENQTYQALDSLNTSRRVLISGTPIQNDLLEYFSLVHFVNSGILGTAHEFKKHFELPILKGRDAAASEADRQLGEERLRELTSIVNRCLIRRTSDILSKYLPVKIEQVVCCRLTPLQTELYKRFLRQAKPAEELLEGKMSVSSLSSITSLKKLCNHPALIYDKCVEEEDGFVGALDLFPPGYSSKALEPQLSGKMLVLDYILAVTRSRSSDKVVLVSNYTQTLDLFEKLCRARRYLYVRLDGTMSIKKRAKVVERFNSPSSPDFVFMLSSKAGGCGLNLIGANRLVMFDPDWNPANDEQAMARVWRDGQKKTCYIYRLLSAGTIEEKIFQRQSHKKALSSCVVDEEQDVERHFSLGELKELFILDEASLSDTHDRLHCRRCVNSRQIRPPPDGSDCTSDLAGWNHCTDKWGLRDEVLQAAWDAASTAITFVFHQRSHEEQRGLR

[7] = molecular target: T2, Short transient receptor potential channel 4 (Mus musculus, UniProt Q9QUQ5); test: block of DAMGO-driven TRPC4 calcium entry – cell-based, HEK293 TRPC4/mu-opioid, Fluo-4 calcium, dose response (AID 434942); type: functional;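 further: potency of inhibitors blocking the TRPC4 calcium response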
T2 sequence (Q9QUQ5 whole entry): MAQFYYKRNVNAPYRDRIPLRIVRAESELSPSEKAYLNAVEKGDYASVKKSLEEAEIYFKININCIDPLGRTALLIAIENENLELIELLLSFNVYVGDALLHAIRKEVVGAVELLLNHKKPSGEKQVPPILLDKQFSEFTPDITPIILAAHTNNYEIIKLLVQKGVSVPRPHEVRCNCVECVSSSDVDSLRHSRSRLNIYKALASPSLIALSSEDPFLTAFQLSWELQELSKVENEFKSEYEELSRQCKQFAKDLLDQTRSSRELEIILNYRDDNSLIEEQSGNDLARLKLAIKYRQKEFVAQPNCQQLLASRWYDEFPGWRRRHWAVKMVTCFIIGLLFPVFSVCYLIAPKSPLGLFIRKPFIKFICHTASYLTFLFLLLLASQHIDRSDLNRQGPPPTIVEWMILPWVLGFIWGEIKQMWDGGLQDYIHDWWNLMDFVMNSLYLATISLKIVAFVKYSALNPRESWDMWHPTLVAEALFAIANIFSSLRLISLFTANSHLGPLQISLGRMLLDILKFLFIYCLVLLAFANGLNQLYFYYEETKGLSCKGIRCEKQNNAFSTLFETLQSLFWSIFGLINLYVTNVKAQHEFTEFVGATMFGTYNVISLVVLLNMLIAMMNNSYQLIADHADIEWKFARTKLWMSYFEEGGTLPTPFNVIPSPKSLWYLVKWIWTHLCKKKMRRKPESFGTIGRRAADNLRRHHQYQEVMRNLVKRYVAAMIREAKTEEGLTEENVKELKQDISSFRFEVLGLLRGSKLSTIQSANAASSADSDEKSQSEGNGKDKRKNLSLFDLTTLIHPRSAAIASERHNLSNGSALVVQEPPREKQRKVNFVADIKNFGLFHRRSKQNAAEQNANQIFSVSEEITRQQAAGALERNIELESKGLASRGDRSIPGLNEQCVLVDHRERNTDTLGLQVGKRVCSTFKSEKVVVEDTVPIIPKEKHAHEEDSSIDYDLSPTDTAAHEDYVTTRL

[8] = Trypanosoma cruzi growth suppression in host cells – NIH3T3 host cells, beta-gal luminescence, confirmation (AID 2044); type: functional, cell-based;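 further: intracellular parasites grown in NIH/3T3 mouse fibroblasts as host cells; luminescent beta-galactosidase reporter signal from transgenic T. cruzi replicating inside host cells; inhibitors lower the luminescence signal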
[9] = molecular target: Luciferin 4-monooxygenase (Photinus pyralis, UniProt P08659); test: inhibition of purified Photinus pyralis luciferase – biochemical, luminescence, dose response (AID 1891)
Luciferin 4-monooxygenase, sequence (P08659 whole entry): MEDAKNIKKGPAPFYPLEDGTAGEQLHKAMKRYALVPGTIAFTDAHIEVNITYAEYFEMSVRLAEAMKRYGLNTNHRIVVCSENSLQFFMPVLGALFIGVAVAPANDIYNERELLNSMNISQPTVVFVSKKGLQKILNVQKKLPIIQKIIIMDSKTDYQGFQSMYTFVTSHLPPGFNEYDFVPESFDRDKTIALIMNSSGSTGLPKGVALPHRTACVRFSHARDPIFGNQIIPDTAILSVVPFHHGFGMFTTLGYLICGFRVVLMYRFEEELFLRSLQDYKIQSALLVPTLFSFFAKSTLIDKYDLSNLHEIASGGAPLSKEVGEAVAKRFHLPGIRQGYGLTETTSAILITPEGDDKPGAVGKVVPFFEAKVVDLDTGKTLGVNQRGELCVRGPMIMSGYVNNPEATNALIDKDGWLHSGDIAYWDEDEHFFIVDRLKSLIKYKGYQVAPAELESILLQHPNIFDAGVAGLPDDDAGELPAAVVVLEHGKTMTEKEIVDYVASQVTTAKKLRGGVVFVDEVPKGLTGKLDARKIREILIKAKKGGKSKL

[10] = molecular target: T3, Rac GTPase-activating protein 1 (Homo sapiens, UniProt Q9H0H5); test: blockers of MgcRacGAP-driven Rac1 GTP hydrolysis – biochemical, ADP Hunter fluorescence, primary and confirmatory, confirmation (AID 624330); type: functional
T3 sequence (Q9H0H5 whole entry): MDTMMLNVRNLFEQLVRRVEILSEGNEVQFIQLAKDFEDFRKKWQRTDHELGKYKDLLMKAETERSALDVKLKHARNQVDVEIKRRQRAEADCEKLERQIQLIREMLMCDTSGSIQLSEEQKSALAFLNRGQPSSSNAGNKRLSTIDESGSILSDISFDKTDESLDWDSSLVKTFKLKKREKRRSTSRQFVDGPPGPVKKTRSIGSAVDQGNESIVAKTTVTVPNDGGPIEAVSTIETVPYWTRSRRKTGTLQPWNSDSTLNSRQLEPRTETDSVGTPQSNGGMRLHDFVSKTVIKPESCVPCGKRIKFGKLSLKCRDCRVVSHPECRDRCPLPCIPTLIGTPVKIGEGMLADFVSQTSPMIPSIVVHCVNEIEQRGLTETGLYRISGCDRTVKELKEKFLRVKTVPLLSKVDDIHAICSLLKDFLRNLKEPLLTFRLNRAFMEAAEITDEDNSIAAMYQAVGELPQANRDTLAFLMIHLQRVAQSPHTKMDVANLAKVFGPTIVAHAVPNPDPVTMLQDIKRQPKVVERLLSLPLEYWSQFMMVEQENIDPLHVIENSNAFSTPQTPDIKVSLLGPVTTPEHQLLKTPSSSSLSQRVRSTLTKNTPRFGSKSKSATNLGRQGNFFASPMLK

[11] = molecular target: T4, Aminopeptidase N (Plasmodium falciparum FcB1/Columbia, UniProt O96935); test: malaria alanyl aminopeptidase activity blockers – biochemical, fluorogenic H-Leu-NHMec substrate, 1536-well (AID 1445); parameters: species or system Plasmodium falciparum 3D7, 3D7
T4 sequence (O96935 whole entry): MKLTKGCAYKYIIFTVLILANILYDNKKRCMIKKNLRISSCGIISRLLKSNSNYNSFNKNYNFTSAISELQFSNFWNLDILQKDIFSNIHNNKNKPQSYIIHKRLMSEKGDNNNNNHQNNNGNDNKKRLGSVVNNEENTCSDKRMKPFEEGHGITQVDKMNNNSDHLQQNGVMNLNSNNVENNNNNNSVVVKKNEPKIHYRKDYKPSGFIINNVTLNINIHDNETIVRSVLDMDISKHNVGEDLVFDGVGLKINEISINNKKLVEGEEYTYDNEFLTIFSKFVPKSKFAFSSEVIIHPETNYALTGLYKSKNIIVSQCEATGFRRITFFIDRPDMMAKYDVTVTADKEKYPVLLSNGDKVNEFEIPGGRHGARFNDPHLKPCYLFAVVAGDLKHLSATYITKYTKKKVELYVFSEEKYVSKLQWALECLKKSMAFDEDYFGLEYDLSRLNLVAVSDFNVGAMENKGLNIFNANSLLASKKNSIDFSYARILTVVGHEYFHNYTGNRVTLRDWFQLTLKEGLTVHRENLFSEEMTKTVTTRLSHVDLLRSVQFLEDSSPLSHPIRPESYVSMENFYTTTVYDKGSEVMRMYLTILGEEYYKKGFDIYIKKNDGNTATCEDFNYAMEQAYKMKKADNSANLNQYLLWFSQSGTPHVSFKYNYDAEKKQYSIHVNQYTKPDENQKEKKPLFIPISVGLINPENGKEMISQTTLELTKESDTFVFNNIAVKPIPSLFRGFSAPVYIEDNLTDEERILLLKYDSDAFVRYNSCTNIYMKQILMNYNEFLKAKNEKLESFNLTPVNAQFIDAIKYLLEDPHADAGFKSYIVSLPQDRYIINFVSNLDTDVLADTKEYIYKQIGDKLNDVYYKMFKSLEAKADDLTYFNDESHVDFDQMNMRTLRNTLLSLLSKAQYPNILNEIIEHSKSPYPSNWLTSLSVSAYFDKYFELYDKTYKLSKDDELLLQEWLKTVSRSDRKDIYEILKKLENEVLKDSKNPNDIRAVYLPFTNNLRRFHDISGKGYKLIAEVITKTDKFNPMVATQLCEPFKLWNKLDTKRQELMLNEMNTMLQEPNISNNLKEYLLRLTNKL

[12] = blockers of bursicon-stimulated LGR2 cAMP reporter – cell-based, HEK293, CRE-luciferase reporter, cherry pick, set 2, dose response (AID 743343); type: functional;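 further: transfected cells were stimulated with diluted bursicon conditioned medium after compound addition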
[13] = Luminescence Cell-Based Dose Confirmation HTS to Identify Inhibitors of Platelet Dense Granule Release. [Related pubchem assays: 1663 (Primary HTS), 1678 (Summary of Project)]; type: functional
[14] = A549 cell cytotoxicity, dose response, cytotoxicity control, plate reader, cherry-pick, antagonist series (AID 743412); type: functional, cell-based
[15] = blockade of melanocortin 4 receptor signaling – cell-based, plate reader, cherry pick, counter-screen for LGR2 antagonist project, dose response (AID 743444); type: functional;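 further: transfected HEK 293 cells stimulated with alpha-MSH peptide; potency of inhibitors of the alpha-MSH evoked signal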
[16] = viability loss in HeLa cells – cytotoxicity control for MgcRacGAP inhibitor project, dose response (AID 624300); type: functional
[17] = molecular target: Albumin (Bos taurus, UniProt P02769); test: Counterscreen for inhibitors of T-cell receptor (TCR)-CD3 interaction: Fluorescence-based biochemical high throughput dose response assay to identify inhibitors of T-cell receptor (TCR)-CD3 interaction using a TAMRA-labeled BSA probe.; type: functional
Albumin, sequence (P02769 whole entry, the tested form may be a part): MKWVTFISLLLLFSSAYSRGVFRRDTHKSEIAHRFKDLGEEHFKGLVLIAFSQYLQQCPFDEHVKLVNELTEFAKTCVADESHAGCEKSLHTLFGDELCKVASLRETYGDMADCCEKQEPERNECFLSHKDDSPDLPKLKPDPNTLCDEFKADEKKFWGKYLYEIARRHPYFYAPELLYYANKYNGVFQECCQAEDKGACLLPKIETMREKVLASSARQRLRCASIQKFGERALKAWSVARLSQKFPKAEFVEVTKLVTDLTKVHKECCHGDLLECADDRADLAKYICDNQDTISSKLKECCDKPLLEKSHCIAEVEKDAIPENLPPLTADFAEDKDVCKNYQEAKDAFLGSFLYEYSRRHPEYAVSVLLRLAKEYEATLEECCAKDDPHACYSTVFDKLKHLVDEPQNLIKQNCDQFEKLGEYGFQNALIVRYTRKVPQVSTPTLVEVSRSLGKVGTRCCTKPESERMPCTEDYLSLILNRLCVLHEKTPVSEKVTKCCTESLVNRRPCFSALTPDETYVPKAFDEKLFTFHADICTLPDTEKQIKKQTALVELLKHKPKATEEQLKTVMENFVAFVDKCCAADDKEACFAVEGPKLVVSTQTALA

[18] = molecular target: Disintegrin and metalloproteinase domain-containing protein 17 (Homo sapiens, UniProt P78536); test: inhibition of ADAM17 substrate cleavage – biochemical, quenched FRET substrate, counter-screen for ADAM10 exosite inhibitor project, dose response (AID 743253)
Disintegrin and metalloproteinase domain-containing protein 17, sequence (P78536 whole entry, the tested form may be a part): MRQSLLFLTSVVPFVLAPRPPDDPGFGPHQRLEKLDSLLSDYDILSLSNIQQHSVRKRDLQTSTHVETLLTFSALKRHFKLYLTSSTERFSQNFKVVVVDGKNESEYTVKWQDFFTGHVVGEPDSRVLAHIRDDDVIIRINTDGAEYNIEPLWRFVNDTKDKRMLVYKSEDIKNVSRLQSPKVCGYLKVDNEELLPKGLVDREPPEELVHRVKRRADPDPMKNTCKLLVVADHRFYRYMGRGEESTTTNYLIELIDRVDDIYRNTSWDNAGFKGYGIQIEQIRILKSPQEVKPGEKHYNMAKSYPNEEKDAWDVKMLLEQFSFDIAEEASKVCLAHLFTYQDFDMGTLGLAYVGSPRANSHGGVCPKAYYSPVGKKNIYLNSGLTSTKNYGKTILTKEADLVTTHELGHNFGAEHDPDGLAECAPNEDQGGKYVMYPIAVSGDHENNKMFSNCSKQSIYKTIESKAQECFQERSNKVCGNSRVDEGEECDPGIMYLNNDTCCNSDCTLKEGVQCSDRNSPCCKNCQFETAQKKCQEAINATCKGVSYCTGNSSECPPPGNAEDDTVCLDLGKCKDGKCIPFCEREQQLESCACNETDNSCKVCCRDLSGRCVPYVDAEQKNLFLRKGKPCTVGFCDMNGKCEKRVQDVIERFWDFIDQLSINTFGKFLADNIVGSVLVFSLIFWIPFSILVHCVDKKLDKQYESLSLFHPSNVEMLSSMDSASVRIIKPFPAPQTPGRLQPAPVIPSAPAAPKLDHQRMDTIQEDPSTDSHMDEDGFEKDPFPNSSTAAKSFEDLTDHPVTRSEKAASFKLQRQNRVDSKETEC

[19] = potency of ADAM10 substrate cleavage blockers – biochemical, QFRET, dose response (AID 743254);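 further: ADAM10 enzyme with the DM2 quenched FRET peptide as substrate; EDANS fluorescence gain as the protease cuts the substrate; inhibitor potency against ADAM10 proteolytic activity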
[20] = African trypanosome bloodstream form growth inhibition – STIB900 strain, plate reader, cherry pick, dose response (AID 651893); type: functional, cell-based, Trypanosoma brucei rhodesiense; details: Trypanosoma brucei
[21] = Inhibition of T. cruzi Tulahuen strain amastigotes in L-6 muscle cells Measured in Cell-Based and Microorganism Combination System Using Plate Reader - 2138-03_Inhibitor_Dose_CherryPick_Activity.; type: functional; details: Rattus norvegicus, L6
[22] = antileishmanial activity on axenic amastigotes – plate reader, cherry pick, dose response (AID 651891); type: functional, cell-based; details: Leishmania donovani
[23] = Inhibition of Plasmodium falciparum NF54 Measured in Cell-Based System Using Plate Reader - 2138-11_Inhibitor_Dose_CherryPick_Activity.; type: functional
[24] = L6 myocyte viability loss – cell-based, plate reader, cherry-pick, cytotoxicity control, dose response (AID 651896); type: functional
[25] = intracellular Trypanosoma cruzi inhibitors in host cells – cell-based, plate reader, cherry-pick samples, set 3, dose response (AID 651818); type: functional;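 further: compounds incubated with infected cells for about four days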

Fructose-bisphosphate aldolase, sequence (P9WQA3 whole entry, the tested form may be a part): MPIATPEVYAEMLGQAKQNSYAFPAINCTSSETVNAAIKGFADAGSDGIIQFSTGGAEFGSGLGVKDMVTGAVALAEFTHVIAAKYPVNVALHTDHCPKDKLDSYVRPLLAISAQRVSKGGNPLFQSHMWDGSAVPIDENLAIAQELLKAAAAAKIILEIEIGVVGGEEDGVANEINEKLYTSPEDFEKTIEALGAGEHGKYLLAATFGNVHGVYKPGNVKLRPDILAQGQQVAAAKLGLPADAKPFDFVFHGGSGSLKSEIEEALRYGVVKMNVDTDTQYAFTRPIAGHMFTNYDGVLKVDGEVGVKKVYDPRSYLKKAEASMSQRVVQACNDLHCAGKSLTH

## Cc1coc2c1c(C)cc1oc(=O)c(CC(=O)NCCCN3CCCC3=O)c(C)c12
[1]
  IC50: 1.43 µM (active)

## Cc1ccc2nc(SCC(=O)N3CCC(C)CC3)nc(=O)n2c1
[2]
  IC50: 22.9 µM (inactive)
[3]
  IC50: 26.2 µM (inactive)

## COc1cccc(NC(=O)Cn2nnc(C(=O)Nc3cc(Cl)ccc3OC)c2N)c1
[2]
  IC50: 8.8 µM (active)
[3]
  IC50: 5.04 µM (active)

## COc1ccc(Nc2nc(NCC3CCCO3)c3ccccc3n2)c(OC)c1 (stereo unspecified)
[4]
  AC50: 13.4 µM (active)
[5]
  EC50: > 30 µM (not active)
[6]
  AC50: 57.9 µM (active)
[7]
  EC50: 0.376 µM (active)
[8]
  EC50: 0.465 µM (active)

## Nc1ccc(-c2nc3ccc(N)cc3s2)cc1
[9]
  EC50: 8.6 µM (active)
[10]
  IC50: 70.2 µM (active)
[11]
  IC50: 21.3 µM (active)
[12]
  AC50: 7.8 µM (active)
[13]
  EC50: 17.5 µM (active)
[14]
  AC50: > 52 µM (inactive)
[15]
  AC50: 7.01 µM (active)
[16]
  CC50: 100 µM (active)

## Cc1ccc(N2C(=O)/C(=C\NNC(=O)C3COc4ccccc4O3)c3ccccc3C2=O)cc1 (stereo unspecified)
[17]
  IC50: > 94.1 µM (inactive)

## COc1ccc(S(=O)(=O)N(CCCN2CCCC2=O)Cc2cc3c(C)cc(C)cc3nc2O)cc1
[1]
  IC50: > 3.33 µM (active)

## FC(F)(F)c1cccc(NC(S)=NCC2COc3ccccc3O2)c1 (stereo unspecified)
[18]
  IC50: > 69.5 µM (inactive)
[19]
  IC50: 16.8 µM (inactive)

## Cc1cc(C)c(-c2cc(NC(=O)COC(=O)c3ccc(NC(=O)CC#N)cc3)n(-c3ccccc3)n2)cc1C
[17]
  IC50: > 94.1 µM (inactive)

## C[C@H](CO)N1C[C@H](C)[C@@H](CN(C)Cc2ccc(C(F)(F)F)cc2)Oc2c(NC(=O)c3ccncc3)cccc2C1=O
[20]
  IC50: 7.22 µM (inactive)
[21]
  IC50: 3.79 µM (inactive)
[22]
  IC50: 41.4 µM (inactive)
[23]
  IC50: 3.79 µM (inactive)
[24]
  IC50: 36.1 µM (inactive)
[25]
  AC50: 0.105 µM (active)

## CCN1CCN(Cc2ccc(C(=O)Nc3ccc(C)c(NCc4cnc(NC(=O)OC)cn4)c3)cc2C(F)(F)F)CC1
[4]
  AC50: 15.1 µM (active)

## C[C@H]1CN([C@@H](C)CO)C(=O)c2cccc(NC(=O)c3ccncc3)c2O[C@H]1CN(C)Cc1ccc(-c2ccccc2)cc1
[20]
  IC50: 11.2 µM (inactive)
[21]
  IC50: 3.21 µM (inactive)
[22]
  IC50: > 100 µM (inactive)
[23]
  IC50: 3.21 µM (inactive)
[24]
  IC50: 47.5 µM (inactive)
[25]
  AC50: 0.08 µM (active)
